Laboratory results published in patent US12642270B2, “Substituted thiophene carboxamides, thiophene carboxylic acids and derivatives thereof” (Bayer Aktiengesellschaft, priority 2019, dated 2026).

Test: Log P by HPLC on reversed phase columns (EEC directive 79/831 Annex V.A8)
Type: physicochemical
Details: for chromatographic logP: reversed phase HPLC columns
Procedure, shortened: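 Reversed-phase HPLC per EEC 79/831 Annex V.A8, LC-UV with 10→95% acetonitrile linear gradient; eluent [a] 0.1% formic acid (acidic), [b] 0.001 M ammonium acetate (neutral), [c] 0.1% phosphoric acid (acidic). Calibrated with C3–C16 straight-chain alkan-2-ones, linear interpolation of retention times; multiple values joined by "+".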

[1] = method [a]: LC-UV, acidic range, 0.1% formic acid in water and acetonitrile
[2] = method marker [a] given with each value, Table 1.1, compounds of formula (I)
[3] = LogP method [a], compounds of formula (I), Table 1.1
[4] = method [a], compounds of formula (I), Table 1.1

For `COC(=O)C1(NC(=O)c2sc(Br)c(Br)c2C#N)CC1` [1.0800], the LogP (method [a]) was 2.40^[a].

`N#Cc1c(C(=O)O)sc(Cl)c1Cl` [II.103, 4,5-dichloro-3-cyanothiophene-2-carboxylic acid] showed a chromatographic logP [1] of 1.61 and a chromatographic logP (value in preparation example, method not marked) of 1.61.

For `COC(=O)CNC(=O)c1cc(Cl)c(C#N)s1` [1.0385], the LogP (method marked [a]) was 1.77^[a].

For `CCOC(=O)C(Cc1ccccc1)NC(=O)c1sc(F)c(Br)c1C` (stereo not shown) [1.0321], the LogP (method marked [a]) was 4.23^[a].

For `CCOC(=O)C(C#N)NC(=O)c1sc(C#N)c(Br)c1C` (stereo not shown) [1.0742], the LogP (method marked [a]) was 2.66^[a].

With `COC(=O)CNC(=S)c1sc(C#N)c(Br)c1C` [1.0864] the LogP (method [a]) was 2.92^[a].

In the case of `COC(=O)[C@H](CCCNC(=N)N)NC(=O)c1sc(Br)c(Br)c1F` [1.0278], the LogP (method marked [a]) is reported as 1.66^[a].

With `COC(=O)CNC(=O)c1cc(C#N)c(Cl)s1` [1.0378] the LogP (method marked [a]) was 1.75^[a].

In the case of `Cc1c(C(=O)O)sc(F)c1Br` [II.102], the LogP [1] is reported as 2.53^[a].

For `O=C(NC(C(=O)OCc1ccccc1)C1CC1)c1sc(Br)c(Br)c1Cl` (stereo not shown) [1.0615], the LogP (method [a]) was 5.07^[a].

In the case of `COC(=O)C(C)(C)NC(=O)c1sc(C#N)c(Cl)c1Cl` [1.0574], the LogP (method [a]) is reported as 2.90^[a].

In the case of `COC(=O)C1(NC(=O)c2sc(Cl)c(Cl)c2Br)CC(C)(C)C1` [1.0612], the LogP (method [a]) is reported as 4.50^[a].

For `COC(=O)C(NC(=O)c1sc(Br)c(Cl)c1C)C(=O)OC` [1.0273], the LogP (method marked [a]) was 3.04^[a].

In the case of `CCCOC(=O)C1(NC(=O)c2sc(C#N)c(Br)c2Cl)CC1` [1.0567], the LogP (method [a]) is reported as 3.18^[a].

With `O=C(NC1(C(=O)OC2CCC2)CCC1)c1sc(Br)c(Br)c1F` [1.0930] the LogP (method [a]) was 4.47^[a].

With `CCOC(=O)C(NC(=O)c1sc(Br)c(Br)c1Cl)C(F)(F)F` (racemic) [1.0943] the LogP [2] was 4.50^[a].

For `Cc1sc(C(=O)O)c(F)c1Br` [II.013], the LogP [1] was 2.08^[a].

With `CCOC(=O)C1(NC(=O)c2cc(C#N)c(Br)s2)CC1` [1.0401] the LogP [3] was 2.30^[a].

In the case of `COC(=O)[C@H](CCC(=O)O)NC(=O)c1sc(Br)c(Br)c1F` [1.0330], the LogP (method marked [a]) is reported as 2.36^[a].

For `COC(=O)C(CCSC(C)=O)NC(=O)c1sc(Cl)c(Cl)c1Br` (stereo not shown) [1.1028], the LogP [2] was 3.98^[a].

With `CCOC(=O)C1(NC(=O)c2sc(Br)c(Br)c2I)CCC1` [1.0082] the LogP [4] was 4.08^[a].

With `CCOC(=O)CCNC(=O)c1sc(Br)c(Br)c1Cl` [1.0143] the LogP (method [a]) was 3.53^[a].

With `COC(=O)C1(NC(=O)c2cc(Br)c(Cl)s2)CC1` [1.0164] the LogP (method [a]) was 2.51^[a].

For `O=C(O)CNC(=S)c1sc(Cl)c(Br)c1Cl` [1.0500], the LogP [3] was 3.10^[a].

For `CCOC(=O)C(NC(=O)c1sc(C#N)c(Cl)c1Br)C(C)C` (stereo not shown) [1.0669], the LogP (method marked [a]) was 3.90^[a].

With `Cc1c(C(=O)NCC(=O)OC2CC2)sc(C#N)c1Br` [1.0993] the LogP [2] was 2.54^[a].

With `CC(C)(C)OC(=O)C1(NC(=O)c2sc(Br)c(Br)c2F)CC(F)(F)C1` [1.0623] the LogP (method [a]) was 4.46^[a].

With `CNC(=O)C1(NC(=O)c2sc(Cl)c(Cl)c2Br)CC1` [1.0882] the LogP (method [a]) was 2.28^[a].

In the case of `CCOC(=O)C(Cc1ccccc1)NC(=O)c1sc(Br)c(Br)c1C(F)(F)F` (stereo not shown) [1.0377], the LogP (method marked [a]) is reported as 4.31^[a].

In the case of `N#CCNC(=O)c1sc(Br)c(Cl)c1Cl` [1.0193], the LogP (method [a]) is reported as 2.67^[a].

In the case of `COC(=O)c1sc(C)c(Cl)c1Cl` [II.058], the LogP [1] is reported as 3.49^[a].

With `N#CCNC(=O)c1sc(Cl)c(Cl)c1F` [1.0342] the LogP (method marked [a]) was 2.30^[a].

For `CCOC(=O)C(CC1CC1)NC(=O)c1sc(Br)c(Cl)c1C` (stereo not shown) [1.0274], the LogP (method marked [a]) was 4.26^[a].

In the case of `O=C(O)C(NC(=S)c1sc(Br)c(Br)c1F)C1CC1` (stereo not shown) [1.1029], the LogP [2] is reported as 3.45^[a].

For `COC(=O)CNC(=O)c1cc(Br)c(F)s1` [1.0295], the LogP (method marked [a]) was 2.01^[a].

For `CCOC(=O)C(CCSC)NC(=O)c1sc(Cl)c(Br)c1Br` (stereo not shown) [1.0216], the LogP (method [a]) was 4.40^[a].

With `CCOC(=O)C(CC(C)C)NC(=O)c1sc(Br)c(Cl)c1Cl` (stereo not shown) [1.0202] the LogP (method [a]) was 5.16^[a].

With `COC(=O)c1cc(C#N)c(Cl)s1` [II.045] the LogP [1] was 2.44^[a].

For `COC(=O)C1(NC(=O)c2sc(Cl)c(Br)c2Br)CC1` [1.0483], the LogP [3] was 3.08^[a].

In the case of `CCOC(=O)C1(NC(=O)c2sc(Cl)c(Br)c2C)CSC1` [1.1057], the LogP [2] is reported as 3.66^[a].

In the case of `CCOC(=O)CN(OC)C(=O)c1sc(Br)c(Br)c1F` [1.0327], the LogP (method marked [a]) is reported as 3.37^[a].

For `COC(=O)C(CCSC)NC(=O)c1sc(Cl)c(Cl)c1C#N` (stereo not shown) [1.0770], the LogP (method marked [a]) was 3.14^[a].

In the case of `CCOC(=O)CCNC(=O)c1sc(Cl)c(Br)c1C` [1.0064], the LogP [4] is reported as 3.15^[a].

With `COC(=O)C(CCSC)NC(=O)c1sc(Br)c(Cl)c1C` (stereo not shown) [1.0759] the LogP (method marked [a]) was 3.64^[a].

For `COC(=O)CC[C@H](NC(=O)c1sc(Br)c(Br)c1F)C(=O)OC` [1.0557], the LogP (method [a]) was 3.07^[a].

With `COC(=O)C(C)(C)NC(=O)c1sc(Br)c(Cl)c1Br` [1.0840] the LogP (method [a]) was 3.81^[a].

For `CCOC(=O)C1(NC(=O)c2sc(Br)c(C(F)F)c2Br)CC1` [1.0648], the LogP (method [a]) was 3.05^[a].

In the case of `CCOC(=O)C(C)(C)NC(=O)C(C)(C)NC(=O)c1sc(Cl)c(Br)c1Br` [I.0699], the LogP [1] is reported as 3.94^[a].
